In patent publication US6589773B1, “Methods and compositions for a modified yeast strain with increased permeability and uses thereof” (priority 2000, dated 2003):
Converted amounts (≈) assume the structure as drawn.

How the values were obtained:
[1] = tested on: modified strains SKY54 and SKY197; test: Yeast strain sensitivity to selected compounds (top-agar death zones / MIC), modified strains; format: cell-based, S. cerevisiae; conditions: for change of sensitivity on induction of HXT9 and HXT11 expression: Gal/Raff containing media; for sensitivity relative to parental strains SKY48 and SKY191, based on the size of the death zones: YPD media, same concentration
Procedure: As used herein, “hyperpermeable” yeast cells or a “hyperpermeable” yeast strain, are yeast cells and strains which have an increased sensitivity to one or more test compounds, relative to the sensitivity of the yeast cells and strains without the above-described insertion-disruption of genes that alter cellular permeability. Sensitivity to such compounds and small molecules is determined by measuring the MIC (minimal inhibitory concentration) of such compounds to visible growth of yeast cells, disregarding a haze of barely visible growth of such yeast cells.
(§1) Decreasing concentrations of cycloheximide, 4-nitroquinolin-oxide, sulfmethuron methyl, and Zeocin were plated on parental yeast strains SKY48 and SKY191 and the modified yeast strains SKY54 and SKY197. From top to bottom of each plate, and from left to right of each row: 5 μg, 2.5 μg, 1 μg, 0.5 μg, 0.2 μg, and 50 ng of CYH; 2.5 μg, 1.25 μg, 0.5 μg, 0.25 μg, 0.1 μg, and 25 ng of NQO; 100 μg, 50 μg, 20 μg, 10 μg, 4 μg, and 1 μg of SMM; and 100 μg, 50 μg, 20 μg, 10 μg, 4 μg, and 1 μg of Zeo.
Yeast strain sensitivity to selected compounds SKY54 and SKY197 were tested for sensitivity to various concentrations of compounds, including cycloheximide (CYH), 4-nitroquinolin-oxide (NQO), sulfmethuron methyl (SMM) and Zeocin (Zeo), relative to the sensitivity of the parental strains, SKY48 and SKY191 to these compounds. Yeast cells were propagated on YPD or YPG/R plates in top-agar layer containing 1% of low melt SeaPlaque agarose and YPD or YPG/R growth media with glucose or galactose as the carbon source. CYH (5 mg/ml), NQO (2.5 mg/ml), SMM (100 mg/ml) and Zeo (100 mg/ml) stock solutions were diluted 2, 5, 10, 25, and 100-fold, and applied on top-agar growing yeast by means of prone device. Sensitivity to various concentrations of compounds was scored by visualization of growth on this media, and the size of “death zones” of sensitive colonies. Thus, the plates shown in FIG. 15 show the sensitivity of the parental and modified yeast strains to, from top to bottom of each plate, and from left to right of each row, 5 μg, 2.5 μg, 1 μg, 0.5 μg, 0.2 μg, and 50 ng of CYH; 2.5 μg, 1.25 μg, 0.5 μg, 0.25 μg, 0.1 μg, and 25 ng of NQO; 100 μg, 50 μg, 20 μg, 10 μg, 4 μg, and 1 μg of SMM; and 100 μg, 50 μg, 20 μg, 10 μg, 4 μg, and 1 μg of Zeo. […] When SKY54 and SKY197 were incubated on Gal/Raff containing media, thereby inducing expression of HXT9 and HXT11 genes, the sensitivity to CYH and 4-NQO increased. The estimated increase of death zone diameters for 4-NQO for SKY54 and SKY 197 on Gal/Raff media in comparison with the parental strains grown on the same media was ˜32-40%. After 48 hours of incubation on Gal/Raff media, sensitivity to CYH was estimated to be 0.01 μg/ml MIC (minimal inhibitory concentration). The MIC is defined as the lowest concentration (micrograms per milliliter of broth) that inhibited visible growth, disregarding a haze of barely visible growth. Sensitivity to CYH of a yeast strain harboring PDR1 and PDR3 deletions, and the HXT11 gene overexpressed from a multicopy plasmid, was previously reported as having an MIC of 0.03 μg/ml CYH (Nourani et al., 1997, Mol. Cell. Biol. 17:5453-5460). […] A comparative analysis of parental strain SKY48 and obtained SKY54 to 73,400 compounds from the SMT chemical library is shown in Table 2. SKY48 is sensitive to 1,959 compounds while SKY54 is sensitive to 3,011 compounds. Thus, SKY54 was sensitive to 154% as many compounds as the parental strain, SKY48.

[2] = tested on: yeast strain harboring PDR1 and PDR3 deletions, and the HXT11 gene overexpressed from a multicopy plasmid; conditions: previously reported, Nourani et al., 1997; cited from earlier work
[3] = tested on: parental strains SKY48 and SKY191; test: Yeast strain sensitivity to selected compounds (top-agar death zones), parental strains; format: cell-based, S. cerevisiae; conditions: all concentrations tested (100 μg to 1 μg)
Procedure: as §1
SKY48 and SKY191 parental strains The parent strains SKY48 and SKY 191 (MATαtrp1 URA3 his3 lexAop-LEU2 cIop-LYS2), with 6 or 2 lexA operators upstream of LEU2, respectively, have been described (Serebriiskii et al., 1999, J. Biol. Chem. 274:17080-17087, which is incorporated herein by reference in its entirety).
Yeast strain sensitivity to selected compounds SKY54 and SKY197 were tested for sensitivity to various concentrations of compounds, including cycloheximide (CYH), 4-nitroquinolin-oxide (NQO), sulfmethuron methyl (SMM) and Zeocin (Zeo), relative to the sensitivity of the parental strains, SKY48 and SKY191 to these compounds. […] Sensitivity to various concentrations of compounds was scored by visualization of growth on this media, and the size of “death zones” of sensitive colonies. […]

SMILES | change of sensitivity on induction of HXT9 and HXT11 expression [1] | estimated increase of death zone diameters in comparison with the parental strains ([1]; Gal/Raff media, parental strains grown on the same media) | sensitivity relative to parental strains SKY48 and SKY191, based on the size of the death zones [1] | MIC ([1]; Saccharomyces cerevisiae, SKY54ANDSKY197, 48 h, read-out: MIC (minimal inhibitory concentration)) | MIC [2] | sensitivity (growth, size of death zones) [3] | sensitivity (growth, size of death zones) ([1]; SKY54 and SKY197, all concentrations tested (100 μg to 1 μg))
O=[N+]([O-])c1cc[n+]([O-])c2ccccc12 [4-NQO, 4-nitroquinolin-oxide] | increased | 32-40% | significantly more sensitive | – | – | – | –
C[C@@H]1C[C@@H]([C@H](O)CC2CC(=O)NC(=O)C2)C(=O)[C@@H](C)C1 [CYH, cycloheximide] | increased | – | significantly more sensitive | 0.01 µg/mL (≈ 0.0355 µM) | 0.03 µg/mL (≈ 0.107 µM) | – | –
COC(=O)c1ccccc1S(=O)(=O)NC(=O)Nc1nc(C)cc(C)n1 [SMM, sulfmethuron methyl] | – | – | – | – | – | no sensitivity | no sensitivity
